Laboratory results from US10240154B2, “RNA products and uses thereof” (IFOM Fondazione Istituto FIRC di Oncologia Molecolare, priority 2012, dated 2019).

Columns and labels:
[1] = tested on: HeLa cells; assay: DDR foci formation in the RNase A in vitro cell system with translation inhibitor; assay type: cell-based, human; conditions: data not shown
Method: (§1) Cells were plated on poly-D-lysinated coverslips and irradiated with 2Gy of IR. 1 h after HeLa cells were permeabilized with 2% Tween 20 in PBS for 10 minutes at RT while I-Sce I-transfected NIH2/4 cells were permeabilized in 0.5% Tween 20 in PBS for 10 minutes at RT. RNase A treatment was carried out in 1 ml of 1 mg/ml Ribonuclease A from bovine pancreas (Sigma-Aldrich cat n: R5503) in PBS for 25 minutes at room temperature. After RNase A digestion, the samples were washed with PBS, treated with 80 units of RNase inhibitor (RNaseOUT Invitrogen 40 units/μl) and 2 μg/ml of α-amanitin (SIGMA) for 15 minutes in a total volume of 70 μl. […] Then, RNase A-treated cells were incubated with total, small or gel extracted RNA, or the same amount of tRNA, for additional 15 minutes at room temperature. […] Cell were then fixed with 4% paraformaldehyde or methanol:acetone 1:1.

[2] = tested on: Dicer; conditions: RNA with aptamer-binding site for paromomycin; according to the amount of ligand; cited from earlier work
[3] = tested on: DDRNAs with telomeric sequence; assay: LNA transfection, 53BP1 foci after telomere uncapping in T19 fibrosarcoma cells; assay type: cell-based, human
Method: (§2) (for the experiments in FIGS. 35-36). T19 fibrosarcoma cells (van Steensel, Cell 1998) were grown in DMEM supplemented with 10% fetal bovine serum, 1% glutamine and doxycycline (100 ng/ml). For induction, cells were grown without doxycycline for at least 7-8 days. CRE-ER TRF2^flox/flow MEFs (Lazzerini Denchi and de Lange, Nature 2007) were grown in DMEM supplemented with 10% fetal bovine serum and 1% glutamine. For induction, cells were grown in presence of 4-hydroxytamoxifen (600 nM) for 48 hours. For BrdU incorporation, cells were labeled with 10 μg/ml bromodeoxyuridine (BrdU, Sigma) for 16 hours and incorporation was evaluated by immunofluorescence after DNA denaturation.
(§3) (for the experiments in FIGS. 35-36). Cells were fixed with 1:1 methanol/acetone solution for 2 minutes at room temperature, or 4% paraformaldehyde for 10 minutes at room temperature. After blocking, cells were stained with primary antibodies for 1 h at room temperature, washed and incubated with conjugated secondary antibodies for 40 minutes at RT. Nuclei were stained with DAPI (1 μg/ml).
(§4) (for the experiments in FIG. 36). LNA were first boiled at 90° C. for 5 minutes, chilled at 4° C. for 5 minutes and transfected with Lipofectamine RNAiMAX (Invitrogen) at the final concentration of 200 nM.

[4] = tested on: DDRNAs with telomeric sequence; assay: LNA transfection, BrdU incorporation after telomere uncapping in T19 fibrosarcoma cells; assay type: cell-based, human; conditions: LNA 200 nM, 3 days following LNA transfection
Method: as §2, §4

[5] = tested on: NIH2/4 cells; assay: Short RNA sequencing of NIH2/4 cells after Dicer or Drosha knockdown by shRNA; assay type: cell-based, mouse; conditions: for miRNA expression (spike-normalized reads mapping to miRBase): NIH2/4, cut and uncut, compared to wildtype; for fraction of 22-23 nt vs total short RNAs at the locus: NIH2/4, uncut and cut conditions
Method: Nuclei were isolated the day after the adenoviral infection.
Nuclear RNA shorter than 200 nt was purified using mirVana™ microRNA Isolation Kit. RNA quality was checked on a small RNA chip (Agilent) before library preparation (Supplementary FIG. 23a). For Illumina hi Seq Version3 sequencing, spike RNA was added to each RNA sample in the RNA:spike ratio of 10,000:1 before library preparation and libraries for Illumina GA IIX were prepared without spike. An improved short RNA library preparation protocol was used to prepare libraries^68. In brief, adenylated 3′ adapters were ligated to 3′ ends of 3′-OH short RNAs using a truncated RNA ligase enzyme followed by 5′ adapter ligation to 5′-monophosphate ends using RNA ligase enzyme, ensuring specific ligation of undegraded short RNAs. cDNA was prepared using a primer specific to the 3′ adapter in the presence of Dimer eliminator and amplified for 12-15 PCR cycles using a special forward primer targeting the 5′ adapter containing additional sequence for sequencing and a reverse primer targeting the 3′ adapter. The amplified cDNA library was run on a 6% polyacrylamide gel and the 100 bp band containing cDNAs up to 33 nt was extracted using standard extraction protocols. Libraries were sequenced after quality check on a DNA high sensitivity chip (Agilent). Multiplexed barcode sequencing was performed on Illumina GA-IIX (35 bp Single end reads) and Illumina Hi seq version3 (51 bp single end reads). Sequences of all the DDRNAs identified in this study will be available for free downloading by the time of publication at short read archive.
Statistical significance of downregulation of normalized miRNAs in Dicer and Drosha knockdown samples were calculated using the Wilcoxon signed-rank test.
The differences in the fraction of 22-23 nt vs total short RNAs at the locus between the wildtype, Dicer knockdown, and Drosha knockdown before and after cut was calculated by fitting a negative binomial model to the sRNA count data and performing a likelihood ratio test, keeping the fraction of 22-23 nt vs total short RNAs at the locus fixed across conditions under the null hypothesis and allowing it to vary between conditions under the alternative hypothesis.

[6] = tested on: HEK293 cells; assay: G2/M checkpoint assay in HEK293 cells after shRNA knockdown; assay type: cell-based, human; conditions: HEK293, 12, 24 and 36 hours post irradiation (5Gy)
Method: HEK 293 calcium phosphate transfected cells were irradiated with 5Gy and allowed to respond to IR-induced DNA damage in a cell culture incubator for 12, 24 or 36 hours. Then, at these three time points post irradiation, together with not irradiated cells, 1×10^6 cells were collected for Fluorescence Activated Cell Sorting (FACS) analysis, fixed in 75% ethanol in PBS, 30 minutes on ice. Afterwards, cells were treated 12 hours with 40 μg/ml of RNase A and incubated at least 1 h with propidium iodide (PI). FACS profiles were obtained by the analysis of at least 5×10^5 cells. In the complementation experiments HEK 293 were transfected using Lipofectamine RNAi Max (Invitrogen) and 48 hours later irradiated with 5Gy. Cells were then treated as explained above.

[7] = biological target: T1, RNA polymerase II (Mus musculus, UniProt P08775); assay: 53BP1 focus reformation at the I-Sce I-induced DSB in RNase A-treated NIH2/4 cells; assay type: cell-based; conditions: data not shown
T1 construct: endogenous in cells; host or cells: NIH2/4 mouse cells
Method: as §1

[8] = biological target: T2, RNA polymerase II (Homo sapiens, UniProt P24928); assay: Spontaneous 53BP1 foci reformation after RNase A treatment in irradiated HeLa cells; assay type: cell-based; conditions: irradiated (2Gy) HeLa, RNase A then RNaseOUT, with α-amanitin for 10 or 45 minutes
T2 construct: endogenous in cells; host or cells: HeLa
Method: as §1, with “After RNase A digestion, the samples were washed with PBS, treated with 80 units of RNase inhibitor (RNaseOUT Invitrogen 40 units/μl) and 2 μg/ml of α-amanitin (SIGMA) for 15 minutes in a total volume of 70 μl.” left out

[9] = tested on: HeLa cells; assay: RNase A treatment of irradiated permeabilized HeLa cells, DDR foci; assay type: cell-based, human; conditions: irradiated HeLa cells (2Gy), RNase A 1 mg/ml
Method: as §1

[10] = tested on: TRF2^flox/flox MEFs; assay: RNase A treatment of TRF2 knockout MEFs with uncapped telomeres; assay type: cell-based, mouse; conditions: RNase A vs BSA
Method: as §2, §3
(for the experiments in FIG. 35). CRE-ER TRF2^flox/flox MEFs (Lazzerini Denchi and de Lange, Nature 2007) were induced to generate TRF2 knockout and telomere uncapping. 48 hours later cells were permeabilized with 0.6% Tween 20 in PBS for 15 min at room temperature.

[11] = tested on: NIH2/4 cells; assay: RNase A treatment of I-Sce I cut NIH2/4 cells, foci colocalizing with Cherry-Lac; assay type: cell-based, mouse
Method: as §1

[12] = induced (Flag+) T19 cells, LNA 200 nM transfected at day 13 from induction, compared to control LNA
[13] = uninduced (Flag−) T19 cells, LNA 200 nM
[14] = Flag+ T19 cells, BrdU 16 hours, compared to Cntrl LNA

C[C@@H]1C[C@@H]([C@H](O)CC2CC(=O)NC(=O)C2)C(=O)[C@@H](C)C1 [cyclohexamide]
DDR foci formation [1]: no impact on DDR foci formation

NC[C@@H]1O[C@H](O[C@H]2[C@@H](O)[C@H](O[C@@H]3[C@@H](O)[C@H](N)C[C@H](N)[C@H]3O[C@H]3O[C@H](CO)[C@@H](O)[C@H](O)[C@H]3N)O[C@@H]2CO)[C@H](N)[C@@H](O)[C@@H]1O [paromomycin]
Dicer activity [2]: decrease of Dicer activity

LNA 3: LNA, SEQ ID NO: 59, ACTGATAGGGAGTGGTAAACT; unrelated control in FIG. 36 (LNA-modified oligonucleotide, LNA positions not given here)
53BP1 foci-positive cells [3, 12]: no effect

LNA 5: LNA, SEQ ID NO: 61, CCCTAACCCTAACCCTAACCC; antisense telomeric sequence; control in FIG. 34
53BP1 foci-positive cells [3, 12]: decrease in DDR-positive cells | 53BP1 foci-positive cells [3, 13]: no difference was observed | percentage of BrdU-positive cells [4, 14]: significant increase | percentage of BrdU-positive cells ([4]; Flag− T19 cells): no difference is observed

LNA 6: LNA, SEQ ID NO: 62, GGGTTAGGGTTAGGGTTAGGG; sense telomeric sequence (LNA)
53BP1 foci-positive cells [3, 12]: decrease in DDR-positive cells | 53BP1 foci-positive cells [3, 13]: no difference was observed | percentage of BrdU-positive cells [4, 14]: significant increase | percentage of BrdU-positive cells ([4]; Flag− T19 cells): no difference is observed

shDicer: shRNA for mouse Dicer, SEQ ID NO:3, lentiviral pLKO.1 (CCGGGCCTCACTTGACCTGAAGTATCTCGAGATACTTCAGGTCAAGTGAGGCTTTTT)
miRNA expression (spike-normalized reads mapping to miRBase) [5]: significantly lower expressed | fraction of 22-23 nt vs total short RNAs at the locus [5]: decreases

shDrosha: shRNA for mouse Drosha, SEQ ID NO:4, lentiviral pLKO.1 (CCGGCCTGGAATATGTCCACACTTTCTCGAGAAAGTGTGGACATATTCCAGGTTTTTG)
miRNA expression (spike-normalized reads mapping to miRBase) [5]: significantly lower expressed | fraction of 22-23 nt vs total short RNAs at the locus [5]: decreases

shRNA against p53: pRETROSUPER shp53, short hairpin SEQ ID NO:2 (guide AGTAGATTACCACTGGAGTCTT)
G2/M checkpoint (FACS cell-cycle profile) [6]: did not arrest upon DNA damage

α-amanitin
53BP1 focus reformation at the I-Sce I-induced DSB [7]: prevents 53BP1 focus reformation | 53BP1-foci reformation [8]: prevents 53BP1-foci reformation

B1: RNase A: Ribonuclease A from bovine pancreas (Sigma-Aldrich R5503), broad-specificity RNA nuclease (protein, UniProt P61823 27-150, looked up)
Ribonuclease pancreatic: KETAAAKFERQHMDSSTSAASSSNYCNQMMKSRNLTKDRCKPVNTFVHESLADVQAVCSQKNVACKNGQTNCYQSYSTMSITDCRETGSSKYPNCAYKTTQANKHIIVACEGNPYVPVHFDASV
53BP1, pATM, pS/TQ and MDC1 foci [9]: strongly reduced | γH2AX accumulation [9]: only slightly affected | 53BP1 foci [10]: disassemble | γH2AX foci [10]: stable | 53BP1, pATM and MRE11 foci colocalizing with the Cherry-Lac focus [11]: lost
